The values that follow come from patent publication US11753407B2, “Compounds for treating spinal muscular atrophy” (PTC Therapeutics, Inc., priority 2012, dated 2023).

Structures are written as SMILES.

Common to all, as to type: in vivo
In assay [1] the test system is SMN2 mRNA in tissues of C/C-allele SMA mice. Briefly: Endogenous SMN2 mRNA end-point semi-quantitative RT-PCR splicing assay in animal tissues. As to conditions: brain and muscle, BID oral gavage 10 days, end-point RT-PCR (FIG. 7). As for the experimental part: The endpoint reverse transcription-PCR (RT-PCR) splicing assay is used to quantify the levels of the full length and Δ7 SMN2 mRNA in tissues from mice treated with test compound.
Protocol. C/C-allele SMA mice are treated by oral gavage BID for 10 days with test compounds in 0.5% HPMC and 0.1% Tween-80. Tissue samples are collected and snap frozen for RNA purification.
Tissue samples (20-40 mg) are homogenized in QIAzol Lysis Reagent for 2 minutes at 20 Hz in the TissueLyser II using one stainless steel bead. After addition of chloroform, the homogenate is separated into aqueous and organic phases by centrifugation. RNA partitioned to the upper, aqueous phase is extracted and ethanol is added to provide appropriate binding conditions. The sample is then applied to the RNeasy spin column from the RNeasy Mini Kit, where total RNA binds to the membrane. The RNA is eluted in RNase-free water then stored at −20° C.
SMN2 spliced products are identified using the following amplification primers in Table 8. These primers hybridize to a nucleotide sequence in exon 6 (SMN Forward D, SEQ ID NO. 13) (nucleotide 22 to nucleotide 46) and exon 8 (SMN Reverse C, SEQ ID NO. 12), common to human SMN1 and SMN2 mRNA.
To synthesize cDNA, combine 1 μL of RNA solution (25-50 ng), 4 μL of 5× iScript reaction mix, 1 μL of reverse transcriptase, and 10 μL of water are combined and incubates 25° C. for 5 min followed by 42° C. for 30 min followed by 85° C. for 5 min. The cDNA solution is stored at −20° C.
To perform endpoint PCR, 5 μL of cDNA, 0.2 μL of 100 μM forward primer, 0.2 μL of 100 μM reverse primer, and 22.5 μL of polymerase super mix are combined in a 96 well semiskirted PCR plate. PCR is carried out at the following temperatures for the indicated time: Step 1: 94° C. (2 min), Step 2: 94° C. (30 sec), Step 3: 55° C. (30 sec), Step 4: 68° C. (1 min), then repeat Steps 2 to 4 for a total of 33 cycles, then hold at 4° C.
10 μL of each PCR sample is electrophoretically separated on a 2% agarose E-gel for 14 minutes stained with dsDNA staining reagents (e.g., ethidium bromide) and visualized using a gel imager.

Assay [2] has as its system Smn protein produced from the SMN2 gene. The assay can be described thus: Smn protein assay in tissues of adult C/C-allele SMA mice. As to conditions: brain, spinal cord, muscle. As for the experimental part: This Smn protein assay compares tissues from test compound treated mice with those from DMSO vehicle treated mice to determine the increase in levels of Smn protein produced from the human SMN2 gene.
Protocol. The tissue samples in Safe-Lock tubes are weighed and the volume of RIPA buffer containing the protease inhibitor cocktail is added based on the weight to volume ratios for each type of tissue: Brain (50 mg/mL), Muscle (50 mg/mL) and Spinal Cord (25 mg/mL).
Tissues are homogenized using the TissueLyzer by bead milling. 5 mm stainless steel beads are added to the sample and shaken vigorously for 5 minutes at 30 Hz in the TissueLyzer. […] Fluorescence for each well of the plate at 665 nm and 620 nm is measured on an EnVision multilabel plate reader (Perkin-Elmer). The total protein in the tissue homogenate is measured using the BCA assay according to the manufacturer's protocol.
The normalized fluorescence signal is calculated for each sample, Blank and vehicle control well by dividing the signal at 665 nm by the signal at 620 nm. Normalizing the signal accounts for possible fluorescence quenching due to the matrix effect of the tissue homogenate. […] The ΔF value for each tissue sample well is divided by the total protein quantity (determined using the BCA assay) for that tissue sample. […]

Assay [3] deals with neonatal SMA Δ7 homozygous knockout mice. The assay can be described thus: Survival of neonatal Δ7 SMA mice. As for the experimental part: The change in the number of surviving mice over time is used to determine whether treatment with a test compound improves survival.
Protocol. SMA Δ7 homozygous knockout mice are dosed intraperitoneally (IP) with test compound or vehicle (100% DMSO) QD from PND 3 until the dose regimen is switched to an oral dose BID in 0.5% hydroxypropylmethyl cellulose (HPMC) with 0.1% Tween-80 at a dose 3.16-fold higher than the dose used for IP and later switched to an oral dose QD in 0.5% hydroxypropylmethyl cellulose (HPMC) with 0.1% Tween-80 at a dose 6.32-fold higher than the dose used for IP. The number of surviving mice in each group is recorded every day and plotted as a percent of total number of mice. Tissues of SMA Δ7 and age-matched heterozygous mice are collected for the measurement of Smn protein levels and processed as detailed in Example 10. The total protein normalized Smn protein levels measured in the tissues are plotted as a percent of those in the age-matched heterozygous mice tissues, with the Smn level in heterozygous mice set to 100 percent. The level of Smn protein in the test compound treated mice tissue relative to that in heterozygous mice tissue is indicated as a percent value above each bar in the graph.

Turning to `COc1ccc(-c2cc(=O)n3cc(N4CCNCC4)ccc3n2)cc1OC` [Cpd 6, 2-(3,4-dimethoxyphenyl)-7-(piperazin-1-yl)-4H-pyrido[1,2-a]pyrimidin-4-one], in assay [1], the “SMN2 FL mRNA” value is listed as “progressively more SMN2 FL mRNA” and the “SMN2 Δ7 mRNA” value is “less SMN2 Δ7 mRNA”. In addition, the “total protein-normalized Smn level” value in assay [2] (100 mg/kg BID for 10 days, relative to vehicle group (FIG. 11a)) is “increased in brain, spinal cord, and muscle tissues”. Moreover, the survival entry in assay [3] (IP QD PND 3 to PND 30, then orally BID from PND 31 until study end (FIG. 15a)) is “improved compared to vehicle treated mice”.

`Cc1cn2nc(-c3cc(=O)n4cc(N5CCN(C)CC5)ccc4n3)cc2c(C)n1` [Cpd 170, 2-(4,6-dimethylpyrazolo[1,5-a]pyrazin-2-yl)-7-(4-methylpiperazin-1-yl)-4H-pyrido[1,2-a]pyrimidin-4-one]: in assay [1], the “SMN2 FL mRNA” value was “progressively more SMN2 FL mRNA” and the “SMN2 Δ7 mRNA” value is “less SMN2 Δ7 mRNA”. Further, the “total protein-normalized Smn level” value in assay [2] (10 mg/kg BID for 10 days, relative to vehicle group (FIG. 11b)) is “increased in brain, spinal cord, and muscle tissues”. In assay [3] (IP QD PND 3 to PND 23, then orally BID from PND 24 until study end (FIG. 15b)), the survival entry is “improved compared to vehicle treated mice”.
